# Reference: ChEMBL document CHEMBL4823262, “Discovery of a Vitamin D Receptor-Silent Vitamin D Derivative That Impairs Sterol Regulatory Element-Binding Protein In Vivo” (J Med Chem, 2021)
# Activity calls are given as the source filed them. No cut-off for these calls is given here.
# Tests used:
# Vitamin D3 receptor = target: T1, Vitamin D3 receptor (Homo sapiens, UniProt P11473); assay: Agonist activity at VDR (unknown origin) expressed in CHO-K1 cells at 5 uM by luciferase reporter assay; assay type: cell-based; conditions: cho-k1, 5 µM
# T1 sequence (P11473 whole entry): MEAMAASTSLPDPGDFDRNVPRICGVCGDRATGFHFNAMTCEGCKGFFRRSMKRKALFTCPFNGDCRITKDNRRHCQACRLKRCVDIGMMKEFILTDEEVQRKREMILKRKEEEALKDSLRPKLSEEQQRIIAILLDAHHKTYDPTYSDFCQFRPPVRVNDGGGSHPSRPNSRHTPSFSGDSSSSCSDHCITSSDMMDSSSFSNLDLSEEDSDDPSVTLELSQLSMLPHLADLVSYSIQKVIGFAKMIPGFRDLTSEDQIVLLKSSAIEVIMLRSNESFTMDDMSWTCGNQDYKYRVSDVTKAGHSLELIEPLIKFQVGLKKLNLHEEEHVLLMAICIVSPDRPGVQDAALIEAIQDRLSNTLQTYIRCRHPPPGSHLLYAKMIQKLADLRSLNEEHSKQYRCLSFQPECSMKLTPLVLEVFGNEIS
# CHO = assay: Cytotoxicity against Chinese hamster CHO cells by beta-galactosidase reporter gene assay; assay type: cell-based, Cricetulus griseus
# [1] = Effect on serum calcium level in mouse assessed as increase in calcium level at 10 mg/kg, ip administered once daily for 4 days […]; assay type: ADME, organism-based; conditions: in vivo, 96 h, time 4 day
# Mus musculus [2] = species: Mus musculus; conditions: Liver, dose 10.0 mg/kg, time 4.0 day
# Mus musculus [3] = species: Mus musculus; conditions: Liver, dose 10.0 mg/kg, time 4.0 day; remark: listed apart in the source
# [4] = target: T2, Sterol regulatory element-binding protein 1 (Homo sapiens, UniProt P36956); assay: Inhibition of SREBP (unknown origin) expressed in CHO-K1 cells by luciferase reporter assay; assay type: cell-based
# T2 sequence (P36956 whole entry): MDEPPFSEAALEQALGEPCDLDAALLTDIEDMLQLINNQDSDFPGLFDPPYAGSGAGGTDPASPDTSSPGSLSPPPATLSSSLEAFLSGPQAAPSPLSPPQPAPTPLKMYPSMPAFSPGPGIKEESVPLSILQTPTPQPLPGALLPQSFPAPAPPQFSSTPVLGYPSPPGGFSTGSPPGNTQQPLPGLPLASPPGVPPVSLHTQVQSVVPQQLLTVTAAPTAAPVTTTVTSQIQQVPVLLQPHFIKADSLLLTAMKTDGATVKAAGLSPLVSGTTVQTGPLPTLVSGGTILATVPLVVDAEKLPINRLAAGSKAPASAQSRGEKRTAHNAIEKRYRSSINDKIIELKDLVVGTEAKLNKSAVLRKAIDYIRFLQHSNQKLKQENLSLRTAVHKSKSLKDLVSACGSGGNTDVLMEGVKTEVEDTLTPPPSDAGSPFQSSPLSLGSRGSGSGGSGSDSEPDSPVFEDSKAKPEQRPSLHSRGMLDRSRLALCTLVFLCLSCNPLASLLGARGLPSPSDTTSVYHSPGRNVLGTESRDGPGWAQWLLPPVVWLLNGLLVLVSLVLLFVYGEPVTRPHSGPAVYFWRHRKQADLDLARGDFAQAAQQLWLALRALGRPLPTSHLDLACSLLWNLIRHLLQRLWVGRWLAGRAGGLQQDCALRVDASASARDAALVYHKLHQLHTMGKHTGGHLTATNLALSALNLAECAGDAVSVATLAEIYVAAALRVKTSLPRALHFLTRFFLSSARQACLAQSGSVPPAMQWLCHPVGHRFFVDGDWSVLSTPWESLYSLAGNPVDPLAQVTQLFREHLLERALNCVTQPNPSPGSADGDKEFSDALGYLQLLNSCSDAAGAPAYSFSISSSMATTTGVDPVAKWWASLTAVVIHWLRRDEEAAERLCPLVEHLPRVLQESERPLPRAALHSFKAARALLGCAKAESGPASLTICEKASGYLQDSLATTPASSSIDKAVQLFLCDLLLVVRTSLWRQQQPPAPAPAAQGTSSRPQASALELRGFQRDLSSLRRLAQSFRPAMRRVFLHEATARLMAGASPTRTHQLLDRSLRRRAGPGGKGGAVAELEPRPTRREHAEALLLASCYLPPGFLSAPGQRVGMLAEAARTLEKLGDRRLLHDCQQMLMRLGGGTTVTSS
# [5] = Toxicity in ob/ob mouse assessed as sick at 10 mg/kg, ip administered 5 times per week for 4 weeks; assay type: organism-based; conditions: in vivo, 672 h
# [6] = Toxicity in ob/ob mouse assessed as increase in weight at 10 mg/kg, ip administered 5 times per week for 4 weeks; assay type: organism-based; conditions: in vivo, 672 h
# [7] = target: T3, Sterol regulatory element-binding protein cleavage-activating protein (Homo sapiens) (UniProt Q12770); assay: Inhibition of FLAG-tagged SCAP (unknown origin) expressed in CHO-K1 cells assessed as reduction in SCAP protein level at 5 uM after 24 hrs by Western blotting analysis; assay type: cell-based
# T3 sequence (whole entry): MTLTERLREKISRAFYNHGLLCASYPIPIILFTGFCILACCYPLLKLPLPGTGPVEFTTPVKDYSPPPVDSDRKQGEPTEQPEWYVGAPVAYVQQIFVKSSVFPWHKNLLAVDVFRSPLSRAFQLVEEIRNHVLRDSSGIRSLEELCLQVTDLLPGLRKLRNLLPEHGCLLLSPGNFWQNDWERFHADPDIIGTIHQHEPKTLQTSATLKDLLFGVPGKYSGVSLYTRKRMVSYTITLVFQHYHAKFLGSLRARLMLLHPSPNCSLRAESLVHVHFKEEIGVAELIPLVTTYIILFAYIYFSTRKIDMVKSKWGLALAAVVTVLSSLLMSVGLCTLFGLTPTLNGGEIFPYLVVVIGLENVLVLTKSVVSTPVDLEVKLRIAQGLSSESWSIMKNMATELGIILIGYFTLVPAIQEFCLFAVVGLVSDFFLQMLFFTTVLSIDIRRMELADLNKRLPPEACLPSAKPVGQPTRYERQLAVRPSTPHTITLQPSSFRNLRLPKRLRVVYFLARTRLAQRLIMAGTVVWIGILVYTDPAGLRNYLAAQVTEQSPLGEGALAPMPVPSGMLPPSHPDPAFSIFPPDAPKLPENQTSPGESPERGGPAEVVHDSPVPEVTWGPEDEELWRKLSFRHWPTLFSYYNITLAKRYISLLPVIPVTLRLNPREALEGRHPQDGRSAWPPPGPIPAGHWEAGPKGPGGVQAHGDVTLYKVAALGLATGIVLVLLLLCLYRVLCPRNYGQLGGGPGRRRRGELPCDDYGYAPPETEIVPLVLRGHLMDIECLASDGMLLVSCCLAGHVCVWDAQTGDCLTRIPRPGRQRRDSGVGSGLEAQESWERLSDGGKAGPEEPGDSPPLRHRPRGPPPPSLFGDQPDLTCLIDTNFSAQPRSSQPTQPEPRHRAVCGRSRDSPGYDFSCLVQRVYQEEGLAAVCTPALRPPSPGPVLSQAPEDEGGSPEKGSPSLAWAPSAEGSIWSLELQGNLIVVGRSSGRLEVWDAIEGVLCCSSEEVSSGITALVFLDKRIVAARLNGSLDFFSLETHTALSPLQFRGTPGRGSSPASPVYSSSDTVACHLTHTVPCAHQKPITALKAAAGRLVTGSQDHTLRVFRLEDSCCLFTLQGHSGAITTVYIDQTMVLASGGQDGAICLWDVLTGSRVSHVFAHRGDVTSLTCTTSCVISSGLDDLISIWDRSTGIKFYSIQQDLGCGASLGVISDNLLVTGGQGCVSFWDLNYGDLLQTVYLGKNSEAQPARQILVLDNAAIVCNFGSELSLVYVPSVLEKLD
compound,measurement,setting,value
C[C@H](CCC(F)(F)C(C)(C)O)[C@H]1CC[C@H]2/C(=C/Cn3nnc(-c4ccc(F)cc4)n3)CCC[C@]12C,Activity,Vitamin D3 receptor,Not Active
same,Activity,CHO,Non-Toxic
C[C@H](CCCC(O)(C(F)(F)F)C(F)(F)F)[C@H]1CC[C@H]2/C(=C/Cn3cc(-c4ccccc4)nn3)CCC[C@]12C,Activity,[1],Toxic
same,inhibition,Mus musculus [2],Active
same,inhibition,Mus musculus [3],Active
C[C@H](CCC(F)(F)C(C)(C)O)[C@H]1CC[C@H]2/C(=C/Cn3cc(-c4ccc(F)cc4)nn3)CCC[C@]12C,Activity,Vitamin D3 receptor,Not Active
C[C@H](CCCC(C)(C)O)[C@H]1CC[C@H]2/C(=C/Cn3ncnn3)CCC[C@]12C,Activity,Vitamin D3 receptor,Active
CCCc1cc(-c2nc(-c3ccc(NS(C)(=O)=O)cc3)cs2)ccn1,IC50,[4],0.7 µM
C[C@H](CCCC(C)(C)O)[C@H]1CC[C@H]2/C(=C/Cn3cnnn3)CCC[C@]12C,Activity,Vitamin D3 receptor,Active
C[C@H](CCCC(C)(C)O)[C@H]1CC[C@H]2/C(=C/Cn3cc(CCCCO)nn3)CCC[C@]12C,Activity,Vitamin D3 receptor,Active
C[C@H](CCC(F)(F)C(C)(C)O)[C@H]1CC[C@H]2/C(=C/Cn3nnnc3-c3ccccc3)CCC[C@]12C,Activity,CHO,Non-Toxic
same,Activity,[5],Non-Toxic
same,Activity,[6],Toxic
C=C1CC[C@H](O)C/C1=C/C=C1\CCC[C@]2(C)[C@@H]([C@H](C)CCCC(C)(C)O)CC[C@@H]12 [CALCIFEDIOL ANHYDROUS],Activity,[1],Toxic
same,IC50,[4],1.18 µM
same,inhibition,[7],Active
same,Activity,[5],Toxic
C[C@H](CCCC(C)(C)O)[C@H]1CC[C@H]2/C(=C/Cn3cc(-c4ccccn4)nn3)CCC[C@]12C,Activity,Vitamin D3 receptor,Active
C[C@H](CCCC(O)(C(F)(F)F)C(F)(F)F)[C@H]1CC[C@H]2/C(=C/Cn3cc(-c4ccc(F)cc4)nn3)CCC[C@]12C,Activity,Vitamin D3 receptor,Not Active
same,Activity,[1],Toxic
same,inhibition,Mus musculus [2],Active
same,inhibition,Mus musculus [3],Active
C[C@H](CCC(F)(F)C(C)(C)O)[C@H]1CC[C@H]2/C(=C/Cn3nnnc3-c3ccc(F)cc3)CCC[C@]12C,Activity,Vitamin D3 receptor,Not Active
same,Activity,CHO,Non-Toxic
